{"source": "patent US20250290117A1", "about": "“MOLECULAR PHENOTYPIC ANTIMICROBIAL SUSCEPTIBILITY TESTING” (priority 2024, published 2025)", "key": {"E. coli": {"system": "E. coli", "assay": "Molecular phenotypic antimicrobial susceptibility test with direct PCR (no extraction DNA purification step)", "assay_type": "cell-based, Escherichia coli", "settings": "specimen with <10,000 cells/mL, direct PCR after 16 hours of incubation", "method": "Detection of Molecular Phenotypic Antimicrobial Susceptibility. Disclosed herein are the methods for the detection of phenotypic antimicrobial susceptibility via molecular methods. The present invention describes how a specimen 100 with a known microbial load is incubated and then exposed to a panel of antimicrobial agents to determine sensitivity (prevention of growth) or resistance (allowance of growth) to the specific antimicrobial agents tested utilizing molecular methods.\nSample Collection. Specimens 100 are collected from patients using sterile collection processes that are employed in routine clinical care. Specimens are transported to the testing facility in boric acid preservative. Specimens 100 are subsequently divided into a first sample 104 and a second sample 108.\nPreparation of the Specimens for Testing. The specimens 100 are put through a pathogen identification process using PCR technology (e.g., using the first sample 104). The process for pathogen isolation includes steps of harvesting the pathogen (e.g., via centrifugation), isolating pathogen DNA via a DNA isolation and/or purification kit, and performing PCR on the pathogen DNA via PCR components (e.g., primers, enzymes, buffers) as would be known to the skilled artisan. Simultaneously, an additional aliquot of the same specimen (e.g., the second sample 108) is placed with liquid culture media and incubated for 4-6 hours. This aliquot is used for antimicrobial susceptibility testing if indicated based on the pathogen detection results. After pathogen identification is completed and if more than 10,000 cells/mL of bacteria (e.g., eligible bacteria) are detected in the source specimen, the second sample 108 then enters the antimicrobial susceptibility phase of testing. Specimens 100 with lower pathogen loads could also be utilized in the antibiotic susceptibility phase of testing with or without a longer incubation period.\nPreparation of Antimicrobial Susceptibility Testing Plates. Antimicrobial solutions are prepared at known concentrations. The specific antimicrobials and their concentrations are selected based on the pathogen of interest and the described antimicrobial resistance breakpoints for that specimen pathogen and antimicrobial combination. These antimicrobials have been selected based on those commonly utilized by healthcare providers in routine clinical care for the specific type of suspected infection. The number and types of antimicrobials utilized can be customized based on the infection source, pathogen detected, patient-specific factors such as allergies or other health conditions (e.g., chronic kidney disease or concurrent medication use), or healthcare provider preferences such as antimicrobial availability or cost.\nThe antimicrobial solutions are prepared in liquid culture media (such as Muller Hinton Broth) to achieve the desired antimicrobial concentration and are then stored at −80° C. until use. For a given specimen, each antimicrobial is tested at a single or multiple antimicrobial concentration(s) which is its established breakpoints for sensitivity. The antimicrobial solutions are prepared and plated out for each specific pathogen. This allows ease of use on the day of testing after defrosting the plate 112. Table 1, which illustrates the results of molecular phenotypic antimicrobial susceptibility testing when more than one organism is present in the source specimen, provides an example of an antimicrobial plate 112 prepared for this purpose. Of note, control wells containing only culture media are present on all plates 112. This allows for evaluation of pathogen load when no antimicrobial is present.\nSpecimen Exposure to Antimicrobial Agents. The 1 mL aliquot of the specimen 100 previously mixed with culture media and incubated is obtained. Using optical density measurements as a guide, the specimen 100 is diluted to 0.5 McFarland. […]"}, "pathogen of the specimen [1]": {"system": "pathogen of the specimen", "assay": "Molecular phenotypic antimicrobial susceptibility test with direct PCR at various incubation timepoints (Table 7)", "assay_type": "cell-based", "method": "Detection of Molecular Phenotypic Antimicrobial Susceptibility. Disclosed herein are the methods for the detection of phenotypic antimicrobial susceptibility via molecular methods. The present invention describes how a specimen 100 with a known microbial load is incubated and then exposed to a panel of antimicrobial agents to determine sensitivity (prevention of growth) or resistance (allowance of growth) to the specific antimicrobial agents tested utilizing molecular methods. Sample Collection. Specimens 100 are collected from patients using sterile collection processes that are employed in routine clinical care. Specimens are transported to the testing facility in boric acid preservative. […] The process for pathogen isolation includes steps of harvesting the pathogen (e.g., via centrifugation), isolating pathogen DNA via a DNA isolation and/or purification kit, and performing PCR on the pathogen DNA via PCR components (e.g., primers, enzymes, buffers) as would be known to the skilled artisan. […] This aliquot is used for antimicrobial susceptibility testing if indicated based on the pathogen detection results. […] Specimens 100 with lower pathogen loads could also be utilized in the antibiotic susceptibility phase of testing with or without a longer incubation period. […] Antimicrobial solutions are prepared at known concentrations. The specific antimicrobials and their concentrations are selected based on the pathogen of interest and the described antimicrobial resistance breakpoints for that specimen pathogen and antimicrobial combination. These antimicrobials have been selected based on those commonly utilized by healthcare providers in routine clinical care for the specific type of suspected infection. The number and types of antimicrobials utilized can be customized based on the infection source, pathogen detected, patient-specific factors such as allergies or other health conditions (e.g., chronic kidney disease or concurrent medication use), or healthcare provider preferences such as antimicrobial availability or cost. The antimicrobial solutions are prepared in liquid culture media (such as Muller Hinton Broth) to achieve the desired antimicrobial concentration and are then stored at −80° C. until use. For a given specimen, each antimicrobial is tested at a single or multiple antimicrobial concentration(s) which is its established breakpoints for sensitivity. The antimicrobial solutions are prepared and plated out for each specific pathogen. […] This allows for evaluation of pathogen load when no antimicrobial is present. Specimen Exposure to Antimicrobial Agents. The 1 mL aliquot of the specimen 100 previously mixed with culture media and incubated is obtained. Using optical density measurements as a guide, the specimen 100 is diluted to 0.5 McFarland. […] Antimicrobial exposure plates are typically placed into an incubator for 12-16 hours. […] Nucleic Acid Amplification of Antimicrobial Agent Exposed Pathogens. The antimicrobial exposure plate is removed after the period of incubation. The specimen then undergoes a purification or lysis step. For example, the specimen may undergo a purification step (e.g., magnetic bead-based or other separation protocol to isolate genetic material). In another example, the specimen may undergo a cell lysis step. For example, buffer (e.g., lysis buffer) may be added and incubated in the thermal cycler for preparation for direct PCR. Next, the specimen may undergo a polymerase chain reaction (PCR) testing protocol, whereby a semi-quantitative PCR method is utilized. This may be completed either with or without a specific extraction protocol step. The pathogens can be individually targeted and detected, or a universal genetic sequence can be utilized to detect the antimicrobial susceptibility of the specimen as a whole. The control wells are utilized as a threshold for determining antimicrobial sensitivity or resistance. […] Antimicrobial Susceptibility Result Interpretation."}, "pathogen of the specimen [2]": {"system": "pathogen of the specimen", "assay": "Traditional culture-based antimicrobial susceptibility test (comparison of Table 7)", "assay_type": "cell-based", "settings": "E. coli isolate 1189", "method": "Table 7 illustrates the results of an example antimicrobial agent susceptibility test of the current application versus a traditional culture-based antimicrobial agent susceptibility test at multiple incubation timepoints, in accordance with one or more embodiments of the disclosure. These specimens were tested with direct PCR (e.g., no extraction DNA purification step prior to PCR). […] Result Reporting to Healthcare Providers. The results from the antimicrobial exposure are reported to the ordering healthcare provider. This information can be utilized by the healthcare provider when selecting an antimicrobial regimen for their individual patient based on these individual specimen results and patient specific factors. […] The current standard of care for antimicrobial susceptibility testing involves the growth, isolation, and exposure of pathogens to antimicrobials. This traditional culture and sensitivity process can take multiple days to obtain results, limiting the ability of healthcare providers to receive timely results to make actionable changes in patient care or management. Healthcare providers desire a method to obtain antimicrobial susceptibility results with quicker turn-around-time. This application discloses a molecular-based phenotypic antimicrobial susceptibility method which involves pathogen exposure to a panel of antimicrobial agents at their specified minimum inhibitory concentration breakpoints for sensitivity. This method allows for more timely antimicrobial susceptibility results."}}, "data": [{"molecule": "C[C@H]1c2cccc(O)c2C(=O)C2=C(O)[C@]3(O)C(=O)C(C(N)=O)=C(O)[C@@H](N(C)C)[C@@H]3[C@@H](O)[C@@H]21", "note": "[Doxycycline]", "values": [{"measurement": "Molecular Antimicrobial Susceptibility Result", "setting": "E. coli; E. coli #1 - WDCM 00090 - 6.2×E3", "result": "Sensitive (Antimicrobial wells with pathogen load detected below the control wells (typically >2 cycle thresholds later) may be reported as Sensitive)"}, {"measurement": "Ct at Sensitive Breakpoint", "setting": "E. coli; E. coli #1 - WDCM 00090 - 6.2×E3, Ct at control 13.787", "result": 25.83}, {"measurement": "Molecular Antimicrobial Susceptibility Result", "setting": "E. coli; E. coli #2 - WDCM 00090 - 6.2×E3", "result": "Sensitive (Antimicrobial wells with pathogen load detected below the control wells (typically >2 cycle thresholds later) may be reported as Sensitive)"}, {"measurement": "Ct at Sensitive Breakpoint", "setting": "E. coli; E. coli #2 - WDCM 00090 - 6.2×E3, Ct at control 13.46", "result": 27.02}]}, {"molecule": "Amoxicillin/Clavulanate", "values": [{"measurement": "Molecular Antimicrobial Susceptibility Result", "setting": "pathogen of the specimen [1]; E. coli isolate 1189, antibiotic incubation time 4 hours", "result": "Resistant"}, {"measurement": "Ct at Sensitive Breakpoint", "setting": "pathogen of the specimen [1]; E. coli isolate 1189, antibiotic incubation time 4 hours, control average Ct […]", "result": 16.799}, {"measurement": "Molecular Antimicrobial Susceptibility Result", "setting": "pathogen of the specimen [1]; E. coli isolate 1189, antibiotic incubation time 6 hours", "result": "Resistant"}, {"measurement": "Ct at Sensitive Breakpoint", "setting": "pathogen of the specimen [1]; E. coli isolate 1189, antibiotic incubation time 6 hours, control average Ct 16.992", "result": 17.105}, {"measurement": "Molecular Antimicrobial Susceptibility Result", "setting": "pathogen of the specimen [1]; E. coli isolate 1189, antibiotic incubation time 8 hours", "result": "Resistant"}, {"measurement": "Ct at Sensitive Breakpoint", "setting": "pathogen of the specimen [1]; E. coli isolate 1189, antibiotic incubation time 8 hours, control average Ct […]", "result": 17.430}, {"measurement": "Molecular Antimicrobial Susceptibility Result", "setting": "pathogen of the specimen [1]; E. coli isolate 1189, antibiotic incubation time 10 hours", "result": "Resistant"}, {"measurement": "Ct at Sensitive Breakpoint", "setting": "pathogen of the specimen [1]; E. coli isolate 1189, antibiotic incubation time 10 hours, control average Ct 15.995", "result": 15.606}, {"measurement": "Molecular Antimicrobial Susceptibility Result", "setting": "pathogen of the specimen [1]; E. coli isolate 1189, antibiotic incubation time 14 hours", "result": "Resistant"}, {"measurement": "Ct at Sensitive Breakpoint", "setting": "pathogen of the specimen [1]; E. coli isolate 1189, antibiotic incubation time 14 hours, control average Ct 15.826", "result": 14.226}, {"measurement": "Molecular Antimicrobial Susceptibility Result", "setting": "pathogen of the specimen [1]; E. coli isolate 1189, antibiotic incubation time 16 hours", "result": "Resistant"}, {"measurement": "Ct at Sensitive Breakpoint", "setting": "pathogen of the specimen [1]; E. coli isolate 1189, antibiotic incubation time 16 hours, control average Ct 14.880", "result": 14.825}, {"measurement": "Traditional Culture Result", "setting": "pathogen of the specimen [2]", "result": "Resistant"}]}]}
